The results in this text go back to patent publication US20240132445A1, “PHENOL DERIVATIVE AND APPLICATION THEREOF IN MEDICAMENTS” (priority 2021, published 2024).

For data set [1], the system named is ICR mice. Kind of data set: animal or person. The settings on record: for ED50: Mus musculus. The procedure: (§1) SPF-grade ICR mice, each weighing 18-22 g, half male and half female, were used. A well-established mouse anesthesia model was used to study the general anesthesia effect of the compound of the present invention. The compounds were formulated with solvents of 10% DMSO, 15% solutol (HS15) and 75% saline to the desired concentration, for further use. After adapting to the experimental environment, the experimental animals were fasted with water available for 12 h, and were administered via intravenous injection at an administration volume of 10 mL/kg. Then the anesthesia induction time (the time period from drug administration to disappearance of the righting reflex) and the anesthesia maintenance time (the time period from disappearance of the righting reflex to recovery of the righting reflex) were recorded. Indicators including the median effective dose (ED50), median lethal dose (LD50), therapeutic index (TI, i.e. LD50/ED50), anesthesia induction time, anesthesia maintenance time and maximum tolerated dose were used to evaluate the effect and safety of anesthesia.

The nature of data set [2]: in vivo. The settings on record: both, ICR, mouse, in vivo, iv. The procedure:
as §1

A short description of data set [3]: Pharmacokinetic study in rats. Conditions: male, Sprague-Dawley, rat, plasma, iv, 1 mg/kg. It counts as in vivo, SD rats. On the procedure: Twelve male SD rats (200-300 g) were randomized into 2 groups (n=6): control group 3 and compound 20. The rats were administered via intravenous injection at 1 mg/kg (control group 3) and 1 mg/kg (compound 20), respectively, with an administration volume of 5 mL/kg and a vehicle of 5% DMSO+10% solutol (HS15)+85% Saline. Blood samples were taken before administration and at 2 min, 4 min, 8 min, 12 min, 15 min, 30 min, 1 h, 1.5 h and 2 h after administration. Plasma samples were taken by centrifugation, and stored in a −80° C. refrigerator until LC-MS analysis to be tested. After sample processing, quantitative analysis of substances in plasma was conducted using LCMS/MS to detect the concentration of prototype compounds in the plasma. The plasma concentration/time curve obtained in this way was used to calculate pharmacokinetic parameters by a validated pharmacokinetic computer program.

Data set [4] deals with SD rats. Put plainly: animal or person. It counts as in vivo.
Protocol: (§2) SD rats, half male and half female, were fasted with water available for 12 h, and were administered via intravenous injection at an administration volume of 10 mL/kg. Then the anesthesia induction time (the time period from drug administration to disappearance of the righting reflex), the anesthesia maintenance time (the time period from disappearance of the righting reflex to recovery of the righting reflex and revival) and the anesthesia recovery time (the time period from revival to complete recovery) were recorded. Indicators including the median effective dose (ED50), median lethal dose (LD50), therapeutic index (TI, i.e. LD50/ED50), anesthesia induction time, anesthesia maintenance time and maximum tolerated dose were used to evaluate the effect and safety of anesthesia.
Data set [5] can be described thus: in vivo. The settings on record: both sexes, Sprague-Dawley, rat, in vivo, iv. It counts as in vivo, rats.
Protocol: as §2
For data set [6], the system named is Beagle dogs. Put plainly: Hemodynamic effect study in conscious Beagle dogs (telemetry). It is filed as in vivo. Conditions: iv, control group 3 2 mg/kg, compound 20 0.5 and 1 mg/kg, within 1 h, recovery after 1 h. On the procedure:
The experiment used an emka PACK 4G telemetry system to detect the effects of intravenous injection of control group 3 and compound 20 on electrocardiogram, blood pressure and body temperature in conscious Beagle dogs, providing reference information for evaluating the safety of clinical use.
Four Beagle dogs were subjected to crossover administration, with a vehicle control (5% DMSO+10% solutol+85% Saline), control group 3 (2 mg/kg), compound 20 (0.5 mg/kg) and compound 20 (1 mg/kg) for each intravenous injection, with an administration volume of 2 mL/kg. Observations were respectively conducted before administration and within 1 h after administration on the day of administration. Anal temperature was measured before administration and at 30 min, 1 h, 2 h and 3 h after administration during each administration period; and electrocardiogram parameters were continuously collected from 0.5 h before administration to 3 h after administration during each administration period. Blood pressure was collected at 15 min after collection was started, and was collected at 2 min, 5 min, 10 min, 20 min, 30 min, 1 h, 2 h and 3 h after administration. The electrocardiogram, blood pressure data, body temperature, and clinical observation results on the day of administration at various time points including before administration (at 30 min after collection was started) and at 2 min, 5 min, 10 min, 20 min, 30 min, 1 h, 2 h and 3 h after administration were analysed and evaluated.

Data set [7] in a line: Pharmacokinetic study in Beagle dogs. It counts as in vivo. Conditions: male, dog, plasma, iv, 0.5 mg/kg. The procedure: Six male Beagle dogs (6-10 kg) were randomized into 2 groups (n=3): control group 3 and compound 20. The […] were administered via intravenous injection at 0.5 mg/kg (control group 3) and 0.5 mg/kg (compound 20), respectively, with an administration volume of 1 mL/kg and a vehicle of 5% DMSO+10% solutol (HS15)+85% Saline. Blood samples were taken before administration and at 2 min, 5 min, 10 min, 20 min, 30 min, 1 h, 1.5 h, 2 h and 3 h after administration. Plasma samples were taken by centrifugation, and stored in a −80° C. refrigerator until LC-MS analysis to be tested. After sample processing, quantitative analysis of substances in plasma was conducted using LCMS/MS to detect the concentration of prototype compounds in the plasma. The plasma concentration/time curve obtained in this way was used to calculate pharmacokinetic parameters by a validated pharmacokinetic computer program.

The mark [8] stands for this setting: mice, iv, administration to disappearance of righting reflex.
Where [9] appears, read: mice, iv, disappearance to recovery of righting reflex.

For `CC(c1cccc(C(C)S(=O)(=O)C(C)C)c1O)C1CC1` (stereo not shown) [Compound 6, 2-(1-cyclopropylethyl)-6-(1-(isopropylsulfonyl)ethyl)phenol], the ED50 in data set [1] (iv) turned out to be 11 mg/kg. This compound also registered a TI in data set [1] (mice, LD50/ED50) of 3.1. The compound also displayed an Anesthesia induction time in data set [1] (setting [8]) of 5 s. Further, the Anesthesia maintenance time in data set [1] (setting [9]) amounted to 579 s. Further, in data set [2], the LD50 amounted to 34 mg/kg and the MTD is 22 mg/kg.

`CCS(=O)(=O)[C@@H](C)c1cccc([C@@H](C)C2CC2)c1O` [Compound 22, 2-((S)-1-cyclopropylethyl)-6-((S)-1-(ethylsulfonyl)ethyl)phenol] had an ED50 in data set [1] (iv) of 5 mg/kg. In data set [1] (mice, LD50/ED50), the TI was 3.6. In data set [1] (setting [8]), this compound showed an Anesthesia induction time of 2 s. Also, the Anesthesia maintenance time in data set [1] (setting [9]) came to 384 s. For the same compound, in data set [2], the LD50 stood at 18 mg/kg and the MTD amounted to 9 mg/kg.

The compound `CC(c1cccc(C(C)S(C)(=O)=O)c1O)C1CC1` (stereo not shown) [Compound 4, 2-(1-cyclopropylethyl)-6-(1-(methylsulfonyl)ethyl)phenol] displayed an ED50 in data set [1] (iv) of 2 mg/kg. This compound also came in with a TI in data set [1] (mice, LD50/ED50) of 5.0. The Anesthesia induction time in data set [1] (setting [8]) is reported as 2 s. In addition, the Anesthesia maintenance time in data set [1] (setting [9]) turned out to be 356 s. In data set [2], this compound had an LD50 of 10 mg/kg and an MTD of 4 mg/kg.

Regarding `CC(c1cccc(C(C)[S+](C)[O-])c1O)C1CC1` (stereo not shown) [Compound 5, 2-(1-cyclopropylethyl)-6-(1-(methylsulfinyl)ethyl)phenol], in data set [1] (iv), it took a dose of 6 mg/kg to reach the 50% effect level (ED50). Besides, the TI in data set [1] (mice, LD50/ED50) was found to be 1.7. In data set [1] (setting [8]), this compound gave an Anesthesia induction time of 2 s. The Anesthesia maintenance time in data set [1] (setting [9]) came out at 1638 s. In data set [2], the LD50 was 10 mg/kg and the MTD is 8 mg/kg.

Turning to `CCS(=O)(=O)C(C)c1cccc(C(C)C2CC2)c1O` (stereo not shown) [Compound 11, 2-(1-cyclopropylethyl)-6-(1-(ethylsulfonyl)ethyl)phenol], in data set [1] (iv), the ED50 is 2 mg/kg. The TI in data set [1] (mice, LD50/ED50) is recorded as 5.5. The same compound showed an Anesthesia induction time in data set [1] (setting [8]) of 22 s. Moreover, in data set [1] (setting [9]), the Anesthesia maintenance time came to 560 s. Also, in data set [2], the LD50 is 11 mg/kg and the MTD was determined as 6 mg/kg.

`CCS(=O)(=O)[C@H](C)c1cccc([C@H](C)C2CC2)c1O` [Compound 23, 2-((R)-1-cyclopropylethyl)-6-((R)-1-(ethylsulfonyl)ethyl)phenol] displayed an ED50 in data set [1] (iv) of 7 mg/kg. The same compound returned a TI in data set [1] (mice, LD50/ED50) of 2. This compound also came in with an Anesthesia induction time in data set [1] (setting [8]) of 2 s. For the same compound, the Anesthesia maintenance time in data set [1] (setting [9]) is 294 s. Moreover, in data set [2], the LD50 came to 14 mg/kg and the MTD was 10 mg/kg.

In the case of `CC(C)c1cccc([C@H](C)C2CC2)c1O` [Control group 3, ciprofol, reference compound], the AUC(0-t) came to 142 ng·h/mL in data set [3] and 145 ng·h/mL in data set [7]. Further, the half-life was 50.6 min in data set [3] and 37.8 min in data set [7]. The ED50 in data set [4] (Rattus norvegicus, iv) came out at 1.1 mg/kg; in data set [1] (iv) it was 1.2 mg/kg. Also, the Anesthesia induction time in data set [4] (rat, in vivo) was 34 s; in data set [1] (mouse, in vivo), 2 s. Moreover, the Anesthesia maintenance time in data set [4] (rat, in vivo) is 409 s; in data set [1] (mouse, in vivo), 521 s. The TI stood at 5.1 in data set [4] (rat, in vivo) and 5 in data set [1] (mouse, in vivo). The LD50 in data set [5] stood at 5.6 mg/kg; in data set [2] it was 6 mg/kg. Moreover, the MTD was 4 mg/kg in data set [5] and 3.1 mg/kg in data set [2]. Also, the “change in heart rate after administration” value in data set [6] is given as “slow down in heart rate”.

In the case of `CCC(c1cccc(C(C)C2CC2)c1O)S(C)(=O)=O` (stereo not shown) [Compound 14, 2-(1-cyclopropylethyl)-6-(1-(methylsulfonyl)propyl)phenol], in data set [1] (iv), it took a dose of 4 mg/kg to reach the 50% effect level (ED50). Moreover, the TI in data set [1] (mice, LD50/ED50) was determined as 3.0. Further, the Anesthesia induction time in data set [1] (setting [8]) was found to be 2 s. For the same compound, the Anesthesia maintenance time in data set [1] (setting [9]) is reported as 499 s. Also, in data set [2], the LD50 turned out to be 12 mg/kg and the MTD was found to be 9 mg/kg.

The compound `CC(C)c1cccc(C(C)[S+](C)[O-])c1O` (stereo not shown) [Compound 2, 2-isopropyl-6-(1-(methylsulfinyl)ethyl)phenol] registered an ED50 in data set [1] (iv) of 6 mg/kg. Besides, the TI in data set [1] (mice, LD50/ED50) turned out to be 3.8. For the same compound, in data set [1] (setting [8]), the Anesthesia induction time was 2 s. This compound registered an Anesthesia maintenance time in data set [1] (setting [9]) of 690 s. In data set [2], the LD50 was 17 mg/kg and the MTD is 10 mg/kg.

With `CC(C)c1cccc(C(C)C2CC2)c1O` (stereo not shown) [Control group 2, ciprofol, reference compound], in data set [1] (iv), the ED50 stood at 3.5 mg/kg. In data set [1] (mouse, in vivo), this compound displayed an Anesthesia induction time of 2 s, an Anesthesia maintenance time of 534 s and a TI of 4.9. In data set [2], this compound had an LD50 of 17 mg/kg and an MTD of 9 mg/kg.

Consider `CC(C)c1cccc(C(C)C)c1O` [Control group 1, propofol, reference compound], for which the ED50 in data set [1] (iv) stood at 12 mg/kg. Further, in data set [1] (mouse, in vivo), the Anesthesia induction time turned out to be 19 s and the Anesthesia maintenance time is 586 s. The MTD in data set [1] (mouse, in vivo, iv) came out at 20 mg/kg. In data set [2], this compound came in with an LD50 of 31 mg/kg.

As for `CCS(=O)(=O)[C@H](C)c1cccc([C@@H](C)C2CC2)c1O` [Compound 21, 2-((S)-1-cyclopropylethyl)-6-((R)-1-(ethylsulfonyl)ethyl)phenol], the ED50 in data set [1] (iv) turned out to be 2.5 mg/kg. This compound showed a TI in data set [1] (mice, LD50/ED50) of 2.4. The Anesthesia induction time in data set [1] (setting [8]) was 2 s. The Anesthesia maintenance time in data set [1] (setting [9]) is recorded as 354 s. In data set [2], this compound came in with an LD50 of 6 mg/kg and an MTD of 3.5 mg/kg.

As to `CC(C)c1cccc(C(C)S(C)(=O)=O)c1O` (stereo not shown) [Compound 1, 2-isopropyl-6-(1-(methylsulfonyl)ethyl)phenol], it took a dose of 8 mg/kg to reach the 50% effect level in data set [1] (iv) (ED50). The compound also yielded a TI in data set [1] (mice, LD50/ED50) of 4.4. For the same compound, in data set [1] (setting [8]), the Anesthesia induction time was 60 s. For the same compound, the Anesthesia maintenance time in data set [1] (setting [9]) came to 255 s. Further, in data set [2], the LD50 was found to be 35 mg/kg and the MTD was determined as 24 mg/kg.
